{"source": "patent US7575882B2", "about": "“Compositions and methods for identifying modulators of TRPV2” (Janssen Pharmaceutica N. V., priority 2005, dated 2009)", "format_in_all_cases": "cell-based", "key": {"[1]": {"system": "untransfected HEK293 cells", "test": "FLIPR calcium assay in untransfected HEK293 cells (control)", "conditions": "100 μM"}, "human TRPV1": {"target": "T1, human TRPV1 (Homo sapiens, UniProt Q8NER1)", "T1 construct": "expressed in transfected cells; host or cells: HEK293", "test": "FLIPR assay in HEK293 cells expressing human TRPV1", "conditions": "Δ^9-THC 240 μM, cannabinol 600 μM, others 120 μM", "protocol": "A selected number of cannabinoids were also tested against HEK293 cells expressing human TRPV1 and canine TRPM8 in the FLIRP assay."}, "[2]": {"system": "deletion mutants of rat TRPV2", "test": "Calcium mobilization in HEK293 cells expressing rat TRPV2 deletion mutants", "conditions": "mutants lacking N-terminal 20, 32/33, 65/66 or C-terminal 11, 23, 32 residues", "description": "DNA molecules encoding the deletion mutants were amplified by PCR using the rat TRPV2 cDNA as the template. For amino-terminal deletions, a series N-terminal forward primers encoding an initiating methionine in frame with sequences matching adjacent regions of the desired start at residues G21 (mutant N20, SEQ ID NO:11), P33 (N32, SEQ ID NO:12), A66 (N65, SEQ ID NO:13) and V84 (N83, SEQ ID NO:14) paired with a C-terminal reverse primer were used for PCR amplification. While for carboxyl-terminal deletions, a forward N-terminal primer paired with a series C-terminal reverse primers ending at residues R706 (C51, SEQ ID NO:7), P729 (C32, SEQ ID NO:8), P738 (C23, SEQ ID NO:9) and E750 (C11, SEQ ID NO:10) with an in-frame stop codon at the terminal end of the open reading frame were used for amplification. After PCR amplification and purification, the DNA molecules encoding the deletion mutants were subcloned into the pCI-neo mammalian expression vector and the constructs were confirmed by DNA sequencing. […]\nThe deletion mutant constructs were then transfected into HEK293 cells using Fugene 6 reagent (Roche) as per the manufacturer's instructions. […] Calcium mobilization was triggered using Δ^9-THC or 2-APB or elevated temperature buffer and measured using either FLIPR or FLEX STATION instruments."}, "[3]": {"target": "T2, rat and human TRPV2 chimera RHR (Rattus norvegicus, UniProt Q9WUD2, A398L/D418K/D570G/D595E/E431N/E493A/E569T/E577V/E585D/F395L/F429V/I422A/INS586GN/K566E/L151P/L436T/L450V/L461V/L478F/L485V/L503S/M468I/M492L/N571P/P420Q/P587G/P589Q/Q419K/R460H/R490C/R560Q/R563W/R617H/S416T/S424H/S425L/S504A/S564R/S573A/S592G/T428E/T494I/T576S/T580M/V402I/V409A/V543I/V575E/V581E/V621M/V635I/Y400N)", "T2 construct": "expressed in transfected cells; host or cells: HEK293, transient, pCI-neo", "test": "Calcium mobilization in HEK293 cells expressing TRPV2 chimera RHR", "conditions": "transient expression in HEK293", "protocol": "The deletion mutant constructs were then transfected into HEK293 cells using Fugene 6 reagent (Roche) as per the manufacturer's instructions. At 24 hours post-transfection, the cells were harvested and replated in fresh DMEM medium supplemented with 10% fetal bovine serum, 100 units/ml penicillin, and 100 μg/ml streptomycin. The cells were distributed onto poly-D-Lysine coated 96-or 384-well plates at a density of approximately 40,000 and 10,000 cells per well, respectively. At approximately 48 hours post-transfection, the medium was removed from the assay plate and replaced with Calcium 3 Dye Buffer (Molecular Devices) using the protocol available from the manufacturer. Calcium mobilization was triggered using Δ^9-THC or 2-APB or elevated temperature buffer and measured using either FLIPR or FLEX STATION instruments.\nBased on the predicted topology and primary sequence features of TRPV2, TRPV2 are divided into 3 major domains: 1) the amino-terminal intracellular domain; 2) the transmembrane domain; and 3) the carboxyl-terminal intracellular domain. For a chimera, each domain can be of rat (R) or human (H) origin. Three rat and human TRPV2 chimera were constructed and tested herein. RRH (SEQ ID NO:15) was a chimera comprising rat 1-392 aa, rat 393-646 aa, and human 647-764 aa. RHR (SEQ ID NO:16) was a chimera comprising rat 1-392, human 391-646, and rat 647-761. HRR (SEQ ID NO:17) was a chimera comprising human 1-390, rat 393-646, and rat 647-761.\nDNA molecules encoding the three rat and human TRPV2 chimeras were obtained by fusion PCR. First, DNA molecules encoding the desired TRPV2 domains were amplified by PCR using the rat or human TRPV2 cDNA as the template with synthetic primer DNA containing in-frame sequence that overlapped with the other species domain to be linked. After PCR amplification and purification, DNA molecules encoding the desired TRPV2 domains from human and rat were combined and used as templates for fusion PCR with primer DNA matching the 5′ and 3′ end sequences of the coding sequence for the full length TRPV2 chimera. […]"}}}
{"substance": "Delta-9-tetrahydrocannabinol [Δ^9-THC]", "values": [{"measurement": "elevation of intracellular Ca2+ in untransfected HEK293 cells", "setting": "[1]", "result": "no significant intracellular Ca^+ elevation"}, {"measurement": "activation of TRPV1", "setting": "human TRPV1", "result": "no significant activation"}, {"measurement": "response of rat TRPV2 deletion mutants to the compound", "setting": "[2]", "result": "still active"}, {"measurement": "response of chimera RHR to the compound", "setting": "[3]", "result": "fully responsive"}, {"measurement": "response of chimera RHR to the compound", "setting": "[3]; listed as Δ9-THC", "result": "active"}]}
